Results on 41 molecules are retold here after patent US20070043024A1, “Azacyclic compounds as inhibitors of sensory neurone specific channels” (priority 2003, published 2007).

T1 sequence (Q9Y5Y9 whole entry): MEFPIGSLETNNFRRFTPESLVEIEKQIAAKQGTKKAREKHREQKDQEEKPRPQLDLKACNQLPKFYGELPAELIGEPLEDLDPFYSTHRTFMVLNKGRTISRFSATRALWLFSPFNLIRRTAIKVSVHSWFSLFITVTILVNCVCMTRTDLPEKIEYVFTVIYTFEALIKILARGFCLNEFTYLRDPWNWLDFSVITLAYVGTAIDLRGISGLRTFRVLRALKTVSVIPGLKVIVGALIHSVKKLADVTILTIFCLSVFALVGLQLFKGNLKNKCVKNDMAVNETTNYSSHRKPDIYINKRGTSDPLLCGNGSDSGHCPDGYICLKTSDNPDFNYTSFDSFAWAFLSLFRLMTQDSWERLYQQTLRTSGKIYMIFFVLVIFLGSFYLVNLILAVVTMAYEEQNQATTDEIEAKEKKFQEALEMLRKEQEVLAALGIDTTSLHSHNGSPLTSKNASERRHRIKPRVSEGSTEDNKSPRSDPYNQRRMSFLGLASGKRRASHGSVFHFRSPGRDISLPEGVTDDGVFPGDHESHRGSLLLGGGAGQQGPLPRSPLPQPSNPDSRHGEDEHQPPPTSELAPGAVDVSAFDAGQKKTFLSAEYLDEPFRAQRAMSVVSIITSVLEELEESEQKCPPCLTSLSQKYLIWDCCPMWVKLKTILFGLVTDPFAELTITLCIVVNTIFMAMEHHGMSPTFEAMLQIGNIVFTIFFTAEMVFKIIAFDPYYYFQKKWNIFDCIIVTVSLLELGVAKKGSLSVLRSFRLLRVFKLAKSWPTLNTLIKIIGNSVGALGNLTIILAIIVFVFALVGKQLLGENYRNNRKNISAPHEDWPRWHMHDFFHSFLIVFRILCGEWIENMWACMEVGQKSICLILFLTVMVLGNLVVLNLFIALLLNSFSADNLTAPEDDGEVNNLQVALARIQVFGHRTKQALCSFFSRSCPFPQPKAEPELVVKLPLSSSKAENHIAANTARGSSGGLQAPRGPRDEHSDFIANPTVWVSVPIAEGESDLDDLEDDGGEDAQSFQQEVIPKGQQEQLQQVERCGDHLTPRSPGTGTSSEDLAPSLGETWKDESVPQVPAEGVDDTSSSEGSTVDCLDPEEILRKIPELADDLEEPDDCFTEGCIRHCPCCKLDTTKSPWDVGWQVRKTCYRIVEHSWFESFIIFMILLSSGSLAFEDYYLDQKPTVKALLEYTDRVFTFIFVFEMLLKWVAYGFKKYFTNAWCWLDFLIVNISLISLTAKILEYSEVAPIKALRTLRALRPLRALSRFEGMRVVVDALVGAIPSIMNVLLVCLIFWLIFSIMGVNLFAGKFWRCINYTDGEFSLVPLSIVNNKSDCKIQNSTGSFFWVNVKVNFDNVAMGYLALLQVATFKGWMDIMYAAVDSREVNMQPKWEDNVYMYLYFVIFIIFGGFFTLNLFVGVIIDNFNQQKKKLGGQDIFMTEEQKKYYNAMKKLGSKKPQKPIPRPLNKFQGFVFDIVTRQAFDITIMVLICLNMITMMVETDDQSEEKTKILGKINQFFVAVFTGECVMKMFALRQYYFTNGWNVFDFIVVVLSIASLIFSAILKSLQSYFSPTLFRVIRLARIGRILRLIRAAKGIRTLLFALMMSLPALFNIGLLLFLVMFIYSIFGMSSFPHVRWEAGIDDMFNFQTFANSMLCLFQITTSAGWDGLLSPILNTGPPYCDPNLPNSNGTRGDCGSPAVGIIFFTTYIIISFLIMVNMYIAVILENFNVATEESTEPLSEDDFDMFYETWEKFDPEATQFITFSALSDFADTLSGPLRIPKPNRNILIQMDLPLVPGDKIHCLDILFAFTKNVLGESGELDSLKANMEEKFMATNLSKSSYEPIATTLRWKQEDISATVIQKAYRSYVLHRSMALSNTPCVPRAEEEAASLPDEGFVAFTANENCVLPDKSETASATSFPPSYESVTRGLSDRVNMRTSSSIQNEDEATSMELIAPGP

One assay concerns the target T1, human Nav1.8 (hNav1.8) ion channel (Homo sapiens, UniProt Q9Y5Y9).
T1 construct: expressed in transfected cells
The experiment in a line: Inhibition of human Nav1.8 stably expressed in SH-SY-5Y cells (membrane potential dye fluorescence assay). In kind it is cell-based. The note with it: IC50, Table 1; SH-SY-5Y hNav1.8 cells, inhibition of membrane depolarisation, FLIPR membrane potential dye, 250 nM TTX, test concentration range 100 μM-0.05 μM.
For the molecule `O=C(CN1CCc2cccc(O)c2C1)N(Cc1ccccc1)c1ccccc1` [Example 25, N-Benzyl-2-(8-hydroxy-3,4-dihydro-1H-isoquinolin-2-yl)-N-phenyl-acetamide], the half-inhibitory concentration (IC50) (commonly the concentration at which inhibition is half-maximal) came out at 1070 nM. Same read-out and setting: the value for `O=C(CN1CCc2cccc(O)c2C1)NCCC(c1ccccc1)c1ccccc1` [Example 27, N-(3,3-Diphenyl-propyl)-2-(8-hydroxy-3,4-dihydro-1H-isoquinolin-2-yl)-acetamide] was 1020 nM. `Cc1cnc(C(C)NC(=O)CN2CCc3cccc(O)c3C2)s1` (stereo not shown) [Example 29, 2-(8-Hydroxy-3,4-dihydro-1H-isoquinolin-2-yl)-N-[1-(5-methyl-thiazol-2-yl)-ethyl]-acetamide]: half-maximal inhibition (IC50) was put at 15000 nM.

Staying with this assay, now noted: Table 1; SH-SY-5Y hNav1.8 cells, inhibition of membrane depolarisation, FLIPR membrane potential dye, 250 nM TTX, test concentration range 100 μM-0.05 μM; read-out: IC50.
For the molecule `O=C(CN1CCc2ccccc2C1)N(Cc1ccccc1)c1ccccc1` [Example 17, N-Benzyl-2-(3,4-dihydro-1H-isoquinolin-2-yl)-N-phenyl-acetamide], the IC50 was found to be 1250 nM. Still for that read-out and setting: to `O=C(CN1CCc2ccccc2C1)NCCC(c1ccccc1)c1ccccc1` [Example 18, 2-(3,4-Dihydro-1H-isoquinolin-2yl)-N-(3,3-diphenyl-propyl)-acetamide] belongs 680 nM. Still for that read-out and setting: the value for `COc1cccc2c1CN(CC(=O)NC(c1ccccc1)c1ccccc1)CC2` [Example 19, N-Benzhydryl-2-(8-methoxy-3,4-dihydro-1H-isoquinolin-2-yl)-acetamide] was 730 nM; that for `COc1cccc2c1CN(CC(=O)NCCC(c1ccccc1)c1ccccc1)CC2` [Example 22, N-(3,3-Diphenyl-propyl)-2-(8-methoxy-3,4-dihydro-1H-isoquinolin-2-yl)-acetamide] was 810 nM; that for `O=C(CN1CCc2cccc(O)c2C1)N(Cc1ccccc1)Cc1ccccc1` [Example 23, N,N-Dibenzyl-2-(8-hydroxy-3,3-dihydro-1H-isoquinolin-2-yl)-acetamide] was 260 nM. As for `O=C(CN1CCc2cccc(O)c2C1)NC(c1ccccc1)c1ccccc1` [Example 24, N-Benzhydryl-2-(8-hydroxy-3,4-dihydro-1H-isoquinolin-2-yl)-acetamide], the IC50 came to 1510 nM. As to `O=C(CN1CCc2cccc(O)c2C1)NC1c2ccccc2-c2ccccc21` [Example 26, N-(9H-fluoren-9-yl)-2-(8-hydroxy-3,4-dihydro-1H-isoquinolin-2-yl)acetamide], the IC50 amounted to 670 nM. The same measure, in the same setting: to `O=C(CC(c1ccc(F)cc1)c1ccc(F)cc1)N1CCc2ccccc2C1` [Example 30] belongs 1590 nM. Still for that read-out and setting: to `O=C(CNC(c1ccccc1)c1ccccc1)N1CCc2ccccc2C1` [Example 31, 2-(Benzhydryl-amino)-1-(3,4-dihydro-1H-isoquinolin-2-yl)-ethanone] belongs 1850 nM; to `O=C(CNCC(c1ccccc1)c1ccccc1)N1CCc2ccccc2C1` [Example 32, 1-(3,4-Dihydro-1-isoquinolin-2-yl)-2-(2,2-diphenyl-ethylamino)-ethanone], 230 nM; to `O=C(CN(CCC(c1ccccc1)c1ccccc1)CC(=O)N1CCc2ccccc2C1)N1CCc2ccccc2C1` [Example 33, 1-(3,4-Dihydro-1H-isoquinolin-2-yl)-2-[[2-(3,4-dihydro-1H-isoquinolin-2-yl)-2-oxo-ethyl]-(3,3-diphenyl-propyl)-amino]-ethanone], 860 nM. Same read-out and setting: to `O=C(CNCCC(c1ccccc1)c1ccccc1)N1CCc2ccccc2C1` [Example 34, 1-(3,4-Dihydro-1H-isoquinolin-2-yl)-2-(3,3-diphenyl-propylamino)-ethanone] belongs 190 nM; to `O=C(CN(Cc1ccccc1)Cc1ccccc1)N1CCc2ccccc2C1` [Example 35, 2-Dibenzylamino-1-(3,4-dihydro-1H-isoquinolin-2-yl)-ethanone], 4860 nM. Take `COc1cccc2c1CN(C(=O)CN(CC(=O)N1CCc3cccc(OC)c3C1)CC(c1ccccc1)c1ccccc1)CC2` [Example 36]: the IC50 was determined as 2800 nM. Same read-out and setting: to `COc1cccc2c1CN(C(=O)CNC(c1ccccc1)c1ccccc1)CC2` [Example 38, 2-(Benzhydryl-amino)-1-(8-methoxy-3,4-dihydro-1H-isoquinoline-2-yl)-ethanone] belongs 1390 nM. For `COc1cccc2c1CN(C(=O)CNCC(c1ccccc1)c1ccccc1)CC2` [Example 39, 2-(2,2-Diphenyl-ethylamino)-1-(8-methoxy-3,4-dihydro-1H-isoquinolin-2-yl)-ethanone], the IC50 is 450 nM. Still for that read-out and setting: the value for `O=C(CN1Cc2ccccc2C1)NCCC(c1ccccc1)c1ccccc1` [Example 40, 2-(1,3-Dihydro-isoindol-2-yl)-N-(3,3-diphenyl-propyl)-acetamide] was 970 nM; that for `O=C(CN1Cc2ccccc2C1)NC(c1ccccc1)c1ccccc1` [Example 41, N-Benzhydryl-2-(1,3-dihydro-isoindol-2-yl)-acetamide] was 7020 nM. In the case of `O=C(CON=C(c1ccccc1)c1ccccc1)N1CCc2ccccc2C1` [Example 42, 2-Benzhydrylideneaminooxy-1-(3,4-dihydro-1H-isoquinoline-2-yl)-ethanone], the IC50 came to 1050 nM. Still for that read-out and setting: to `COc1cccc2c1CN(C(=O)CON=C(c1ccccc1)c1ccccc1)CC2` [Example 43, 2-Benzhydrylideneaminooxy-1-(8-methoxy-3,4-dihydro-1H-isoquinoline-2-yl)-ethanone] belongs 1670 nM; to `Oc1cccc2c1CN(Cc1n[nH]nc1-c1ccccc1)CC2` [Example 45, 2-(5-Phenyl-2H-[1,2,3]triazol-4-ylmethyl)-1,2,3,4-tetrahydro-isoquinolin-8-ol], 7210 nM; to `c1ccc(C(CCNCCN2CCc3ccccc3C2)c2ccccc2)cc1` [Example 46, [2-(3,4-Dihydro-1H-isoquinolin-2-yl)-ethyl]-(3,3-diphenyl-propyl)-amine], 290 nM. Same read-out and setting: the value for `c1ccc(CN(CCN2CCc3ccccc3C2)Cc2ccccc2)cc1` [Example 47, Dibenzyl-[2-(3,4-dihydro-1H-isoquinolin-2-yl)-ethyl]-amine] was 470 nM; that for `CC(CN1CCc2cccc(O)c2C1)OCc1ccccc1` (stereo not shown) [Example 48, 2-(2-Benzyloxy-propyl)-1,2,3,4-tetrahydro-isoquinolin-8-ol] was 4840 nM. Still for that read-out and setting: the value for `S=C(NC(c1ccccc1)c1ccccc1)N1CCc2ccccc2C1` [Example 50, 3,4-Dihydro-1H-isoquinoline-2-carbothioic acid benzhydryl-amide] was 2740 nM; that for `COc1cccc2c1CN(C(=S)NCC(c1ccccc1)c1ccccc1)CC2` [Example 52, 8-Methoxy-3,4-dihydro-1H-isoquinolin-2-carbothioic acid (2,2-diphenyl-ethyl)-amide] was 4680 nM. For the molecule `O=C(CN1CCc2ccccc2C1)NCC(c1ccccc1)c1ccccc1` [Example 60, 2-(3,4-Dihydro-1H-isoquinolin-2-yl)-N-(2,2-diphenyl-ethyl)-acetamide], the half-maximal inhibitory concentration (IC50) was found to be 950 nM. On the same count and under the same terms, to `COc1cccc2c1CN(CC(=O)NCC(c1ccccc1)c1ccccc1)CC2` [Example 61, N-(2,2-Diphenyl-ethyl)-2-(8-methoxy-3,4-dihydro-1H-isoquinolin-2-yl)-acetamide] belongs 2560 nM; to `COc1cccc2c1CN(CC(=O)N1CCN(C(c3ccccc3)c3ccccc3)CC1)CC2` [Example 62, 1-(4-benzhydryl-piperazin-1-yl)-2-(8-methoxy-3,4-dihydro-1H-isoquinolin-2-yl)-ethanone], 5630 nM; to `COc1cccc2c1CN(CC(=O)N1CCN(C(c3ccc(F)cc3)c3ccc(F)cc3)CC1)CC2` [Example 63, 1-{4-[Bis-(4-fluoro-phenyl)-methyl]-piperazin-1-yl}-2-(8-methoxy-3,4-dihydro-1H-isoquinolin-2-yl)-ethanone], 15800 nM.

Regarding `O=C(CN1CCc2ccccc2C1)N1CCN(C(c2ccccc2)c2ccccc2)CC1` [Example 64, 1-(4-Benzhydryl-piperazin-1-yl)-2-(3,4-dihydro-1H-isoquinolin-2-yl)-ethanone], the concentration for half-maximal inhibition (IC50) stood at 3140 nM.

Regarding `O=C(CN1CCc2ccccc2C1)N1CCN(C(c2ccc(F)cc2)c2ccc(F)cc2)CC1` [Example 65, 1-{4-[Bis-(4-fluoro-phenyl)-methyl]-piperazin-1-yl}-2-(3,4-dihydro-1H-isoquinolin-2-yl)-ethanone], the IC50 came to 5640 nM.

For the molecule `O=C(CN1Cc2ccccc2C1)NCC(c1ccccc1)c1ccccc1` [Example 66], the half-inhibitory concentration (IC50) worked out at 2050 nM.

As for `O=C(CN1Cc2ccccc2C1)N1CCN(C(c2ccccc2)c2ccccc2)CC1` [Example 67, 1-(4-Benzhydryl-piperazin-1-yl)-2-(1,3-dihydro-isoindol-2-yl)-ethanone], the half-inhibitory concentration (IC50) came to 2350 nM. With `O=C(CN1Cc2ccccc2C1)N1CCN(C(c2ccc(F)cc2)c2ccc(F)cc2)CC1` [Example 68, 1-{4-[Bis-(4-fluoro-phenyl)-methyl]-piperazin-1-yl}-2-(1,3-dihydro-isoindol-2-yl)-ethanone], the IC50 stood at 1950 nM. With `COc1cccc2c1CN(CC(=O)NC(c1ccccc1)c1ccccn1)CC2` (stereo not shown) [Example 69, 2-(8-methoxy-3,4-dihydro-1H-isoquinolin-2-yl)-N-(phenyl-pyridin-2-yl-methyl)-acetamide], the IC50 was found to be 8960 nM.

As for `O=C(CN1CCc2cccc(O)c2C1)N1c2ccccc2OCC1c1ccccc1` (stereo not shown) [Example 70, 2-(8-Hydroxy-3,4-dihydro-1H-isoquinolin-2-yl)-1-(3-phenyl-2,3-dihydro-benzo[1,4]oxazin-4-yl)-ethanone], the IC50 was 2140 nM. Same read-out and setting: to `COc1cccc2c1CN(C(C)C(=O)NCCC(c1ccccc1)c1ccccc1)CC2` (stereo not shown) [Example 77, N-(3,3-Diphenyl-propyl)-2-(8-methoxy-3,4-dihydro-1H-isoquinolin-2-yl)-propionamide] belongs 660 nM.

The assay is the same for the next values; noted with them: Table 2 (compound numbers of the list in the description); SH-SY-5Y hNav1.8 cells, inhibition of membrane depolarisation, FLIPR membrane potential dye, 250 nM TTX, test concentration range 100 μM-0.05 μM; read-out: IC50.
`O=C(CN1Cc2ccccc2C1)NCCC(c1ccccc1)c1ccccc1` [Example 40, 2-(1,3-Dihydro-isoindol-2-yl)-N-(3,3-diphenyl-propyl)-acetamide]: the IC50 was 530 nM. The same measure, in the same setting: the value for `O=C(CN1Cc2ccccc2C1)NCC(c1ccccc1)c1ccccc1` [Example 66] was 2050 nM.
